Laboratory results taken from PubChem BioAssay AID2060333 (Molecular Pharmacology Branch, DTP, NCI, 2025).

Test system: 845751-090-R-J2-PDC tumor spheroid viability
Test: Anticancer human tumor 845751-090-R-J2-PDC patient-derived head and neck squamous carcinoma cell line growth inhibition [IpAb]
Details: spheroids with HUVEC and MSC; for IC50: curve of first compound; for viability, T/C: stronger effect = lower value
In short: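 Multi-cell spheroids of 60% tumour cells, 25% HUVEC and 15% MSC in ultra-low-attachment U-bottom wells, treated with agents combined with ipatasertib or abemaciclib. Half-log ranges top out near clinical Cmax, or 10 microM when Cmax is unknown.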

[1] = second compound 0.01 µM, first compound 0.0316 µM
[2] = second compound 0.01 µM, first compound 0.1 µM
[3] = second compound 0.0316 µM, first compound 0.0316 µM
[4] = second compound 0.0316 µM, first compound 0.1 µM
[5] = second compound 0.1 µM, first compound 0.0316 µM
[6] = second compound 0.1 µM, first compound 0.1 µM
[7] = second compound 0.316 µM, first compound 0.0316 µM
[8] = second compound 0.316 µM, first compound 0.1 µM
[9] = second compound 1 µM, first compound 0.0316 µM
[10] = second compound 1 µM, first compound 0.1 µM
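Further: spheroids exposed to compounds for 7 days before readout.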
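Wherever viability, T/C is given: CTG3D luminescence normalised so that 100% = DMSO vehicle control.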

`Cn1ncc(Cl)c1-c1cc(C(=O)NC(CN)Cc2cccc(F)c2)sc1Cl` (stereo not given) + CCN1CCN(Cc2ccc(Nc3ncc(F)c(-c4cc(F)c5nc(C)n(C(C)C)c5c4)n3)nc2)CC1 showed an IC50 (second compound 0.01 µM) of 178 nM, an IC50 (second compound 0.0316 µM) of 94.7 nM and an IC50 (second compound 0.1 µM) of 160 nM. It also gave an IC50 (second compound 0.316 µM) of 170 nM, an IC50 (second compound 1 µM) of 401 nM and a viability, T/C [1] of 97.8%. It also gave a viability, T/C [2] of 58%, a viability, T/C (second compound 0.01 µM, first compound 0.316 µM) of 34% and a viability, T/C (second compound 0.01 µM, first compound 1 µM) of 32.3%. It also gave a viability, T/C (second compound 0.01 µM, first compound 3.16 µM) of 8.93%, a viability, T/C (second compound 0.01 µM, first compound 10 µM) of 0.28% and a viability, T/C [3] of 90.9%. The viability, T/C [4] was 38.1%, the viability, T/C (second compound 0.0316 µM, first compound 0.316 µM) was 30.7% and the viability, T/C (second compound 0.0316 µM, first compound 1 µM) was 28.1%. The viability, T/C (second compound 0.0316 µM, first compound 3.16 µM) was 8.85%, the viability, T/C (second compound 0.0316 µM, first compound 10 µM) was 0.59% and the viability, T/C [5] was 86.3%. It also gave a viability, T/C [6] of 56.7%, a viability, T/C (second compound 0.1 µM, first compound 0.316 µM) of 34.1% and a viability, T/C (second compound 0.1 µM, first compound 1 µM) of 29.2%. For the same compound, the viability, T/C (second compound 0.1 µM, first compound 3.16 µM) was 6.19%, the viability, T/C (second compound 0.1 µM, first compound 10 µM) was 0.25% and the viability, T/C [7] was 63.4%. The viability, T/C [8] was 72%, the viability, T/C (second compound 0.316 µM, first compound 0.316 µM) was 26.7% and the viability, T/C (second compound 0.316 µM, first compound 1 µM) was 25.8%. The viability, T/C (second compound 0.316 µM, first compound 3.16 µM) was 4.76%, the viability, T/C (second compound 0.316 µM, first compound 10 µM) was 0.45% and the viability, T/C [9] was 64.3%. The viability, T/C [10] was 75.1%, the viability, T/C (second compound 1 µM, first compound 0.316 µM) was 53.1% and the viability, T/C (second compound 1 µM, first compound 1 µM) was 27.4%. The viability, T/C (second compound 1 µM, first compound 3.16 µM) was 3.89% and the viability, T/C (second compound 1 µM, first compound 10 µM) was 0.61%.

`Cn1ncnc1[C@H]1c2n[nH]c(=O)c3cc(F)cc(c23)N[C@@H]1c1ccc(F)cc1` + CCN1CCN(Cc2ccc(Nc3ncc(F)c(-c4cc(F)c5nc(C)n(C(C)C)c5c4)n3)nc2)CC1 was tested, and the IC50 (second compound 0.01 µM) was greater than 100 nM, the IC50 (second compound 0.0316 µM) was 73.1 nM and the IC50 (second compound 0.1 µM) was greater than 100 nM. It also gave an IC50 (second compound 0.316 µM) of 85.4 nM, an IC50 (second compound 1 µM) of 19.6 nM and a viability, T/C (second compound 0.01 µM, first compound 0.000316 µM) of 71.6%. It also gave a viability, T/C (second compound 0.01 µM, first compound 0.001 µM) of 94%, a viability, T/C (second compound 0.01 µM, first compound 0.00316 µM) of 91.8% and a viability, T/C (second compound 0.01 µM, first compound 0.01 µM) of 83.1%. The viability, T/C [1] was 92.1%, the viability, T/C [2] was 70.9% and the viability, T/C (second compound 0.0316 µM, first compound 0.000316 µM) was 74.7%. For the same compound, the viability, T/C (second compound 0.0316 µM, first compound 0.001 µM) was 81.8%, the viability, T/C (second compound 0.0316 µM, first compound 0.00316 µM) was 69.7% and the viability, T/C (second compound 0.0316 µM, first compound 0.01 µM) was 78.8%. It also gave a viability, T/C [3] of 63.5%, a viability, T/C [4] of 45% and a viability, T/C (second compound 0.1 µM, first compound 0.000316 µM) of 71.9%. The viability, T/C (second compound 0.1 µM, first compound 0.001 µM) was 66.3%, the viability, T/C (second compound 0.1 µM, first compound 0.00316 µM) was 71.3% and the viability, T/C (second compound 0.1 µM, first compound 0.01 µM) was 69.7%. It also gave a viability, T/C [5] of 75.7%, a viability, T/C [6] of 59.9% and a viability, T/C (second compound 0.316 µM, first compound 0.000316 µM) of 63.6%. The viability, T/C (second compound 0.316 µM, first compound 0.001 µM) was 69.4%, the viability, T/C (second compound 0.316 µM, first compound 0.00316 µM) was 72.8% and the viability, T/C (second compound 0.316 µM, first compound 0.01 µM) was 55%. The viability, T/C [7] was 57.8%, the viability, T/C [8] was 49.3% and the viability, T/C (second compound 1 µM, first compound 0.000316 µM) was 58.8%. For the same compound, the viability, T/C (second compound 1 µM, first compound 0.001 µM) was 84.5%, the viability, T/C (second compound 1 µM, first compound 0.00316 µM) was 57.7% and the viability, T/C (second compound 1 µM, first compound 0.01 µM) was 57.1%. The viability, T/C [9] was 46.4% and the viability, T/C [10] was 37.1%.
